Laboratory results taken from ChEMBL document CHEMBL1156829 (Proc Natl Acad Sci U S A, 2008).

Legend:
Plasmodium falciparum [1] = assay: NOVARTIS: Inhibition of Plasmodium falciparum W2 (drug-resistant) proliferation in erythrocyte-based infection assay; type: functional, organism-based; settings: Plasmodium falciparum, W2; read-out: EC50
[2] = NOVARTIS: Cytotoxicity against human hepatocellular carcinoma cell line (Huh7); type: toxicity, cell-based, Huh-7; settings: Huh7 cells (hepatocellular carcinoma cell line)
Plasmodium falciparum [3] = assay: NOVARTIS: Inhibition of Plasmodium falciparum 3D7 (drug-susceptible) proliferation in erythrocyte-based infection assay; type: functional, organism-based; settings: Plasmodium falciparum, 3D7

Compound	EC50 (Plasmodium falciparum [1]) [nM]	CC50 [2] [nM]	EC50 (Plasmodium falciparum [3]) [nM]
CN(CCCNc1ccnc2cc(Cl)ccc12)S(=O)(=O)c1ccc(Br)cc1	295	6880	186
Cc1cc(Nc2ccc(Cl)c(Cl)c2)n2nc(C)nc2n1	112	> 100000	123
COc1ccc(-c2cc(-c3ccc(C)cc3)[nH]n2)c(O)c1	198	25600	1520
CCN(C(=O)CSc1nc(-c2ccc(C(C)C)cc2)no1)c1cccc(C)c1	183	> 100000	356
CCCCC(=O)NC(c1cccc([N+](=O)[O-])c1)c1ccc2cccnc2c1O (centres undefined)	267	18800	376
O=C(CCn1c(=S)oc2ccccc21)N1CCN(c2ccccc2)CC1	26.7	> 10000	> 1250
CC1CC(C)CN(C(=O)c2sc3ccccc3c2Cl)C1 (centres undefined)	64.5	> 100000	35.7
C[n+]1ccc(C2OC2c2ccccc2)c2ccccc21 (centres undefined)	1740	> 10000	1380
CN(CCCNc1ccnc2cc(Cl)ccc12)C(=O)C12CC3CC(CC(C3)C1)C2	184	14100	53
CCn1c(SCc2ccc([N+](=O)[O-])cc2)nc2sc3c(c2c1=O)CCN(C)C3	808	> 100000	470
COc1ccc(C(=O)ON=C(N)Cc2ccc(Cl)cc2Cl)cc1[N+](=O)[O-]	675	> 100000	4980
COc1c(N2CCN(Cc3c(C)cc(C)cc3C)CC2)c2nc3oc2c2c(OC(=O)C(C)(C)C)c(C)c4c(c12)[C@@H](O)[C@@](C)(OC=C[C@H](OC)[C@@H](C)[C@@H](OC(C)=O)C(C)[C@H](O)[C@H](C)[C@@H](O)C(C)C=CC=C3C)O4 (some centres undefined)	554	> 10000	221
O=C1C(N2CCCCC2)=C(N2CCCCC2)C(=O)c2ccccc21	34.1	24900	137
CCOC(=O)C1=C(C)NC2=C(C(=O)CC(c3ccc(Cl)cc3)C2)C1c1ccc(Cl)cc1 (centres undefined)	51.5	> 100000	89.4
O=C(CCCc1nc(-c2ccccc2)no1)NCc1cccnc1	1130	> 10000	> 1770
CN[C@H]1C[C@@H]2O[C@](C)([C@H]1O)n1c3ccccc3c3c4c(c5c6ccccc6n2c5c31)C(=O)NC4	52.1	32.3	55.4
CC(=O)Nc1nc(C)c(-c2csc(Nc3ccc(Br)cc3)n2)s1	859	38100	696
CCOC(=O)C(=CNc1ccc(I)cn1)C(=O)OCC	< 12.6	> 10000	190
O=C(Nc1cc(C(F)(F)F)ccc1OCc1ccccc1)c1ccccc1O	949	> 10000	> 1250
CCn1cc(C(=O)NCCC2=CCCCC2)c(=O)c2cc(S(=O)(=O)N(C)C)ccc21	> 449	> 10000	> 1250
COc1ccc(CNC(=O)c2ccc3c(c2)N=C(/C=C/c2ccccc2)N(CCN2CCOCC2)C3)cc1	> 949	> 10000	790
NC(=NOC(=O)c1ccccc1I)c1ccccn1	831	63000	6030
c1ccc(-c2nc(-c3ccc4cccnc4c3)n(-n3c(-c4ccc5cccnc5c4)nc(-c4ccccc4)c3-c3ccccc3)c2-c2ccccc2)cc1	1500	29100	3640
CN(C)c1ccc(C=CC(=O)NC(=O)c2ccccc2O)cc1	358	> 100000	118

Compound	EC50 (Plasmodium falciparum [1]) [nM]	CC50 [2] [nM]	EC50 (Plasmodium falciparum [3]) [nM]
O=C(Nc1ccc(C2=NCCN2)cc1)Nc1cc(C(=O)Nc2ccc(C3=NCCN3)cc2)ccc1C(=O)Nc1ccc(C2=NCCN2)cc1	62.9	> 10000	99.7
COc1ccc(C2c3[nH]c4ccccc4c3C[C@H]3C(=O)N(CCC(C)C)CC(=O)N23)cc1 (some centres undefined)	497	> 100000	3190
O=C(Nc1ccc(OC(F)(F)F)cc1)c1cnn2c1NC(c1cccs1)CC2C(F)(F)F (centres undefined)	241	> 50000	492
CCN(CC)c1nc(NN=Cc2cccc([N+](=O)[O-])c2OC)nc(Nc2ccccc2)n1	294	> 100000	244
CCOc1ccc(-c2noc(-c3ccncc3)n2)cc1OCC	> 847	> 10000	> 1250
O=S1(=O)CCC(O)c2ccsc21 (centres undefined)	> 12500	> 100000	4180
CCOc1ccccc1-n1c(N)c(C(=O)Nc2ccc(C)cc2)sc1=S	361	> 100000	1320
Fc1ccccc1Nc1nc(NCC2CCCO2)c2ccccc2n1 (centres undefined)	637	34200	669
CN(C)CCNC(=S)Nc1cccc(C(F)(F)F)c1	897	> 100000	4030
CCOC(=O)CCC(=O)Oc1ccccc1-c1nc2cc(C)ccn2c1NC(C)(C)CC(C)(C)C	79.5	> 10000	658
Cc1ccc(-n2c(SCc3cc(=O)n4ccccc4n3)nc3ccsc3c2=O)cc1C	> 1250	> 10000	> 1160
COc1ccc(C2CC(=O)C3=C(C2)NC(C)=C(C(=O)OC2CCCC2)C3c2ccc(Cl)cc2)cc1OC (centres undefined)	16.7	21600	29
CCN(CC)CCN1C(=O)c2ccccc2NC1c1ccc(Cl)cc1 (centres undefined)	455	53300	370
CC1(C)CC(NC(=O)Cc2ccc(Cl)cc2)CC(C)(C)N1	2300	> 100000	> 12500
Cc1ccc(N2C(=O)C3C(C2=O)C2(c4ccccc4)C(=O)C3(c3ccccc3)C(c3ccccc3)=C2c2ccccc2)c([N+](=O)[O-])c1 (centres undefined)	> 12500	> 100000	2640
CCC(CC)C(=O)N1CCOc2c(cc(-c3csc4ccccc34)cc2OCc2ccccn2)C1	1010	> 10000	1110
CCNC(=O)N1CCN(CCN(C/C=C/c2ccccc2OC)C(=O)CC(C)CC(C)(C)C)CC1 (centres undefined)	1430	> 10000	> 1250
CCC(Sc1nnc(-c2ccc(C)cc2)c(-c2ccc(C)cc2)n1)C(=O)NCCOC (centres undefined)	753	77000	477
CCn1c(CSc2nc(C)cc(C)n2)nnc1SCC(N)=O	26.7	> 10000	> 1250
Cn1c(=NC(=O)c2ccc(S(=O)(=O)N3CCCCC3)cc2)sc2cc(Cl)ccc21	26.7	> 10000	> 1250
COc1ccc(C=Cc2cc[n+](C)cc2)cc1OC	1010	> 100000	1820
O=C(c1ccncc1)N1N=C(c2c(-c3ccccc3)c3cc(Br)ccc3[nH]c2=O)CC1c1ccccc1 (centres undefined)	1540	8700	144
Cc1nn(CC(O)Cn2c3ccc(Br)cc3c3cc(Br)ccc32)c(C)c1Br (centres undefined)	177	75200	769
COc1cc(OC)cc(-n2nc(C(=O)NC3CCCCC3)c3ccccc3c2=O)c1	> 1220	> 10000	> 1250
